Source: US12371453B2, “Polypeptide having antibacterial activity, composition for preventing or treating sepsis comprising same, and antibacterial composition” (priority 2019, dated 2025)
Like-named read-outs stand apart in the source and are kept apart here. Square brackets hold non-standard residues; d marks the D form. Ends that are not written are not given here. Peptide text beside a SMILES is read from it.

Tests used:
[1] = LPS binding affinity by Isothermal Titration Calorimeter (ITC); parameters: species or system E. coli K1; conditions: for LPS binding affinity (in words): compared with FP1 (wild type, WT); for Kd: peptide binding to LPS, read-out: Kd (calculated by ITC)
From the text: FPT (ADK 44-54) is denoted by wild type (WT), and peptides in which a point mutation occurred at various sites in WT were manufactured (FP3, FP5, FP6, and FP9). To increase the interaction with LPS in a residue sequence of FP3, peptides were designed based on FP3- and LPS-binding models (FP12-NH2 and FP13-NH2), and peptides were designed by additionally introducing a non-natural amino acid and an amino acid isomer (allomeric D-type amino acid) (allD FP12-NH2, allD FP13-NH2, allD FP-13-9a, allD FP-13-9w, allD FP-13-9k, and allD FP13-NH2 (AcOH)). In addition, an N-terminus PEGylated peptide (PEG-alld FP13-NH2 (AcOH)) was additionally designed, synthesized, and provided by ANYGEN, Co. Ltd. The binding affinity between each of the provided peptides and lipopolysaccharide (LPS) was confirmed through measuring the binding affinity (Kd) using Isothermal Titration Calorimeter (ITC).
Specifically, a method of analyzing binding affinity (Kd) between a peptide and LPS is as follows.
Measurement was carried out using a Malvern MicroCal PEAQ-ITC cell instrument, and the following pretreatment was carried out to confirm interaction with LPS. The amount and morphology of a sample cell are 300 μL and coin-shaped, fixed-in-place, respectively; a syringe rotation rate was 1,200 rpm; and a temperature was 30° C., 35° C. or 25° C.
Before the experiment, LPS and the peptide were previously diluted with PBS, thereby preparing 2 mM LPS and 0.2 mM peptide. 300 μL of the peptide was added into cells in the ITC instrument, which had been washed, and 40 μL of LPS was put into a syringe. After measurement conditions for ITC (temperature, number of injections) were set, the syringe was inserted into the cell, and ITC measurement was started. When the measurement was completed, analysis is performed, and the Kd values of LPS and the peptide were calculated.

[2] = test system: Carbapenem resistant (CR)-Acinetobactor baumannii; assay: organism not typed
Method: (§1) The antibacterial activity was evaluated according to an antibacterial activity test method for measuring the minimum inhibitory concentration 50 (MIC50; the minimal concentration that kills 50% of bacteria).
(§2) More specifically, 100 μL of a medium was dispensed into each well of a 96-well plate, and in the first column, an antibiotic and a peptide in 200 μL of the medium were dispensed. 1/2 serial dilution was performed from columns 1 to 11 and five types of antibiotic-resistant bacteria (ESBL-resistant E. coli, carbapenem-resistant A. baumannii, carbapenem-resistant Klebsiella pneumoniae, carbapenem-resistant Pseudomonas aeruginosa, colistin-resistant Acinetobactor baumannii), which had been previously cultured, were diluted (OD600 nm value in dilution: approximately 0.0025) and dispensed into each well. The plate was incubated in a 37° C. incubator for 4 hours, and measured at OD600 nm.

[3] = test system: CR-Klebsiella pneumoniae
Method: as §1, §2

[4] = test system: ESBL (E. coli)
Method: as §1, §2

[5] = test system: Colistin resistant AB (Acinetobactor baumannii)
Method: as §1, §2

[6] = test system: Escherichia coli K1; assay: microbe, parasite or virus in culture; conditions: for MIC: Escherichia coli
Method: (§3) To compare the antibacterial activity between the four commercially available antibiotics (ampicillin, gentamicin, levofloxacin and imipenem) and the allD FP13-NH2 (AcOH) peptide, an antibacterial activity test was performed to measure the minimum inhibitory concentrations (MIC50 and MIC80) for gram-negative and gram-positive standard strains (Escherichia coli DH5α, Escherichia coli K1, Acinetobacter baumannii, Pseudomonas aeruginosa, Salmonella enteritidis, Salmonella typhimurium, and Klebsiella pneumoniae).
(§4) More specifically, 100 μL of a medium was dispensed into each well of a 96-well plate, and in the first column, an antibiotic and a peptide in 200 μL of the medium were dispensed. 1/2 serial dilution was performed from columns 1 to 11, and gram-negative and gram-positive bacteria which had been previously cultured were diluted (OD600 nm value in dilution: approximately 0.0025) and dispensed into each well. The plate was incubated in a 37° C. incubator for 4 hours, and measured at OD600 nm.

[7] = test system: Salmonela enteritidis (ATCC 13076); assay: microbe, parasite or virus in culture; conditions: for MIC: Salmonella enterica
Method: as §3, §4

[8] = test system: Klebiella pneumoniae (ATCC 13883); assay: microbe, parasite or virus in culture; conditions: for MIC: Klebsiella pneumoniae; for MIC (μg/ml) 50% / MIC (μg/ml) 80%: Klebsiella pneumoniae ATCC 13883; for MIC (μg/ml) 50%: 50% growth inhibition; for MIC (μg/ml) 80%: 80% growth inhibition
Method: as §3, §4

[9] = test system: Salmonela typhimurium (ATCC 53648); assay: microbe, parasite or virus in culture; conditions: for MIC: Salmonella enterica
Method: as §3, §4

[10] = test system: Escherichia coli DH5α (ATCC PTA-4750); assay: microbe, parasite or virus in culture; conditions: for MIC: Escherichia coli, 4 h
Method: as §3, §4

[11] = test system: Pseudomanas aeruginosa PAO1 (ATCC 47085D-5); assay: microbe, parasite or virus in culture; conditions: for MIC: Pseudomonas aeruginosa; for MIC (μg/ml) 50% / MIC (μg/ml) 80%: Pseudomonas aeruginosa PAO1; for MIC (μg/ml) 50%: 50% growth inhibition; for MIC (μg/ml) 80%: 80% growth inhibition
Method: as §3, §4

[12] = test system: Acinetobacter baumannii (ATCC 19606); assay: microbe, parasite or virus in culture; conditions: for MIC: Acinetobacter baumannii
Method: as §3, §4

[13] = ATCC13883, read-out: MIC (μg/ml) 50%
[14] = ATCC13883, read-out: MIC (μg/ml) 80%
[15] = PAO1, read-out: MIC (μg/ml) 50%
[16] = PAO1, read-out: MIC (μg/ml) 80%
[17] = ATCC19606, read-out: MIC (μg/ml) 50%
[18] = ATCC19606, read-out: MIC (μg/ml) 80%
[19] = colistin resistant A. baumannii

LRLGVEAKRYLR [FP5]
LPS binding affinity (in words) [1]: strong LPS binding affinity
Kd [1]: 854 µM

RLRVKLRRYLR [FP12]
MIC50, Carbapenem resistant (CR)-Acinetobactor baumannii [2]: <16 µg/mL
MIC50, CR-Klebsiella pneumoniae ([3]; CR-): <62 µg/mL
MIC50, ESBL (E. coli) ([4]; ESBL): <2 µg/mL
MIC50, Colistin resistant AB [5]: <125 µg/mL

klrvklrralr-NH2 [allD FP-13-9a-NH2]
LPS binding affinity (in words) [1]: strong LPS binding affinity
Kd [1]: 9.54 µM

C[C@H]1COc2c(N3CCN(C)CC3)c(F)cc3c(=O)c(C(=O)O)cn1c23 [Levofloxacin, levofloxacin]
MIC ([6]; K1, read-out: MIC (μg/ml) 50%): < 0.5 µg/mL
MIC ([6]; K1, read-out: MIC (μg/ml) 80%): < 1 µg/mL
MIC ([7]; read-out: MIC (μg/ml) 50%): < 0.5 µg/mL
MIC ([7]; read-out: MIC (μg/ml) 80%): < 1 µg/mL
MIC [8, 13]: < 0.5 µg/mL
MIC [8, 14]: < 1 µg/mL
MIC ([9]; read-out: MIC (μg/ml) 50%): < 0.5 µg/mL
MIC ([9]; read-out: MIC (μg/ml) 80%): < 1 µg/mL
MIC ([10]; read-out: MIC (μg/ml) 50%): < 0.5 µg/mL
MIC ([10]; read-out: MIC (μg/ml) 80%): < 1 µg/mL
MIC [11, 15]: < 0.5 µg/mL
MIC [11, 16]: < 1 µg/mL
MIC [12, 17]: < 0.5 µg/mL
MIC [12, 18]: < 1 µg/mL

KLGVEALRYLD [FP9]
LPS binding affinity (in words) [1]: strong LPS binding affinity
Kd [1]: 326 µM

PEG-KLRVKLRRYLR-NH2 [PEG-alld FP13-NH2 (AcOH)]
Kd [1]: 17.5 µM

KLRVKLRRYLR [FP13]
MIC50, Carbapenem resistant (CR)-Acinetobactor baumannii [2]: <16 µg/mL
MIC50, CR-Klebsiella pneumoniae ([3]; CR-): <62 µg/mL
MIC50, ESBL (E. coli) ([4]; ESBL): <2 µg/mL
MIC50, Colistin resistant AB [5]: <62 µg/mL

KLRVKLRRWLR [allD FP-13-9w-NH2]
LPS binding affinity (in words) [1]: strong LPS binding affinity
Kd [1]: 17.4 µM

KLGVEAKRYLR [FP3]
LPS binding affinity (in words) [1]: strong LPS binding affinity
Kd [1]: 332 µM

gentamicin
MIC (μg/ml) 50% ([6]; Escherichia coli K1, 50% growth inhibition): <0.5 µg/mL
MIC (μg/ml) 80% ([6]; Escherichia coli K1, 80% growth inhibition): <1.0 µg/mL
MIC (μg/ml) 50% ([7]; Salmonella enteritidis ATCC 13076, 50% growth inhibition): <0.5 µg/mL
MIC (μg/ml) 80% ([7]; Salmonella enteritidis ATCC 13076, 80% growth inhibition): <1.0 µg/mL
MIC (μg/ml) 50% [8]: <0.5 µg/mL
MIC (μg/ml) 80% [8]: <1.0 µg/mL
MIC (μg/ml) 50% ([9]; Salmonella typhimurium ATCC 53648, 50% growth inhibition): <0.5 µg/mL
MIC (μg/ml) 80% ([9]; Salmonella typhimurium ATCC 53648, 80% growth inhibition): <1.0 µg/mL
MIC (μg/ml) 50% ([10]; Escherichia coli DH5α, 50% growth inhibition, 4 hours): <0.5 µg/mL
MIC (μg/ml) 80% ([10]; Escherichia coli DH5α, 80% growth inhibition, 4 hours): <1.0 µg/mL
MIC (μg/ml) 50% [11]: <0.5 µg/mL
MIC (μg/ml) 80% [11]: <1.0 µg/mL
MIC (μg/ml) 50% ([12]; Acinetobacter baumannii ATCC 19606, 50% growth inhibition): <1.0 µg/mL
MIC (μg/ml) 80% ([12]; Acinetobacter baumannii ATCC 19606, 80% growth inhibition): <2.0 µg/mL

colistin [reference compound]
MIC50, Carbapenem resistant (CR)-Acinetobactor baumannii ([2]; CR-A. baumannii): <1 µg/mL
MIC50, CR-Klebsiella pneumoniae ([3]; CR-K. pneumoniae): <125 µg/mL
MIC50, ESBL (E. coli) ([4]; ESBL E. coli): <0.5 µg/mL
MIC50, Colistin resistant AB [5, 19]: No effect

klrvklrrklr-NH2 [allD FP-13-9k-NH2]
LPS binding affinity (in words) [1]: strong LPS binding affinity
Kd [1]: 1.99 µM

C[C@@H](O)[C@H]1C(=O)N2C(C(=O)O)=C(SCCN=CN)C[C@H]12 [Imipenem, imipenem]
MIC50, Carbapenem resistant (CR)-Acinetobactor baumannii ([2]; CR-A. baumannii): No effect
MIC ([6]; K1, read-out: MIC (μg/ml) 50%): < 0.5 µg/mL
MIC ([6]; K1, read-out: MIC (μg/ml) 80%): < 1 µg/mL
MIC ([7]; read-out: MIC (μg/ml) 50%): < 4 µg/mL
MIC ([7]; read-out: MIC (μg/ml) 80%): < 8 µg/mL
MIC [8, 13]: < 2 µg/mL
MIC [8, 14]: < 8 µg/mL
MIC ([9]; read-out: MIC (μg/ml) 50%): < 4 µg/mL
MIC ([9]; read-out: MIC (μg/ml) 80%): < 8 µg/mL
MIC ([10]; read-out: MIC (μg/ml) 50%): < 4 µg/mL
MIC ([10]; read-out: MIC (μg/ml) 80%): < 8 µg/mL
MIC [11, 15]: < 32 µg/mL
MIC [11, 16]: < 64 µg/mL
MIC [12, 17]: < 8 µg/mL
MIC [12, 18]: < 15 µg/mL
MIC50, CR-Klebsiella pneumoniae ([3]; CR-K. pneumoniae): No effect
MIC50, ESBL (E. coli) ([4]; ESBL E. coli): No effect
MIC50, Colistin resistant AB [5, 19]: No effect

CC(C)C[C@@H](NC(=O)[C@H](N)CCCNC(=N)N)C(=O)N[C@H](CCCNC(=N)N)C(=O)N[C@@H](C(=O)N[C@H](CCCCN)C(=O)N[C@H](CC(C)C)C(=O)N[C@H](CCCNC(=N)N)C(=O)N[C@H](CCCNC(=N)N)C(=O)N[C@H](Cc1c[nH]c2ccccc12)C(=O)N[C@H](CC(C)C)C(=O)N[C@H](CCCNC(=N)N)C(N)=O)C(C)C [allD FP21-NH2] (H-[dR][dL][dR][dV][dK][dL][dR][dR][dW][dL][dR]-NH2; N-terminus assumed)
MIC50, Carbapenem resistant (CR)-Acinetobactor baumannii [2]: <1 µg/mL
MIC50, CR-Klebsiella pneumoniae ([3]; CR-): <4 µg/mL
MIC50, ESBL (E. coli) ([4]; ESBL): <0.5 µg/mL
MIC50, Colistin resistant AB [5]: <4 µg/mL

LRLGVELKRYLR [FP6]
LPS binding affinity (in words) [1]: strong LPS binding affinity
Kd [1]: 11.1 µM

KLGVEAKRYLD [FP1(WT), reference compound]
Kd [1]: 238 µM

CC1(C)S[C@@H]2[C@H](NC(=O)[C@H](N)c3ccccc3)C(=O)N2[C@H]1C(=O)O [Ampicillin, ampicillin]
MIC50 ([2]; read-out: MIC50, Carbapenem resistant (CR)-Acinetobactor baumannii): < 16 µg/mL
MIC ([6]; K1, read-out: MIC (μg/ml) 50%): < 4 µg/mL
MIC ([6]; K1, read-out: MIC (μg/ml) 80%): < 8 µg/mL
MIC ([7]; read-out: MIC (μg/ml) 50%): < 4 µg/mL
MIC ([7]; read-out: MIC (μg/ml) 80%): < 8 µg/mL
MIC (μg/ml) 50% [8]: no effect
MIC (μg/ml) 80% [8]: no effect
MIC ([9]; read-out: MIC (μg/ml) 50%): < 1 µg/mL
MIC ([9]; read-out: MIC (μg/ml) 80%): < 2 µg/mL
MIC ([10]; read-out: MIC (μg/ml) 50%): < 2 µg/mL
MIC ([10]; read-out: MIC (μg/ml) 80%): < 4 µg/mL
MIC (μg/ml) 50% [11]: no effect
MIC (μg/ml) 80% [11]: no effect
MIC [12, 17]: < 32 µg/mL
MIC [12, 18]: < 64 µg/mL
MIC50, CR-Klebsiella pneumoniae ([3]; CR-K. pneumoniae): No effect
MIC50, ESBL (E. coli) ([4]; ESBL E. coli): No effect
MIC50, Colistin resistant AB [5, 19]: No effect
